# Test results from patent US10696655B2, “Therapeutic compounds and uses thereof” (GENENTECH, INC., priority 2017, dated 2020).
# Tests used:
# [1] = target: CBP (Homo sapiens (Human), UniProt Q92793); assay: CBP TR-FRET binding assay; details: His/Flag tagged CBP 4 nM, biotin-ligand 60 nM; read-out: CBP HTRF IC50;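 note: displacement of a biotinylated small-molecule ligand from purified recombinant CBP read by TR-FRET, DMSO-only wells as control, IC50 from nonlinear curve fit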
# Description: IC50 Measurements for Inhibitors Using CBP TR FRET Binding Assay
# His/Flag epitope tagged CBP was cloned, expressed, and purified to homogeneity. CBP binding and inhibition was assessed by monitoring the engagement of a biotinylated small molecule compound with the target using the TR-FRET assay technology (Perkin-Elmer). Specifically, in a 384 well ProxiPlate CBP (4 nM final) was combined with biotin-ligand (60 nM final) in 50 mM HEPES (pH 7.5), 50 mM NaCl, 1 mM TCEP, 0.01% (w/v) BSA, and 0.008% (w/v) Brij-35 either in the presence of DMSO (final 0.2% DMSO) or compound dilution series in DMSO. […] After twenty minutes of equilibration, the plates were read on an Envision instrument and IC50S calculated using a four parameter non-linear curve fit.
# [2] = test system: MYC; assay: MYC RPL19 QuantiGene assay in MV-4-11 cells; type: cell-based; details: Homo sapiens, MV4-11, compound 4 hours
# From the text: MYC RPL19 QuantiGene assay in MV-4-11 Cells
# CBP, sequence (Q92793 whole entry): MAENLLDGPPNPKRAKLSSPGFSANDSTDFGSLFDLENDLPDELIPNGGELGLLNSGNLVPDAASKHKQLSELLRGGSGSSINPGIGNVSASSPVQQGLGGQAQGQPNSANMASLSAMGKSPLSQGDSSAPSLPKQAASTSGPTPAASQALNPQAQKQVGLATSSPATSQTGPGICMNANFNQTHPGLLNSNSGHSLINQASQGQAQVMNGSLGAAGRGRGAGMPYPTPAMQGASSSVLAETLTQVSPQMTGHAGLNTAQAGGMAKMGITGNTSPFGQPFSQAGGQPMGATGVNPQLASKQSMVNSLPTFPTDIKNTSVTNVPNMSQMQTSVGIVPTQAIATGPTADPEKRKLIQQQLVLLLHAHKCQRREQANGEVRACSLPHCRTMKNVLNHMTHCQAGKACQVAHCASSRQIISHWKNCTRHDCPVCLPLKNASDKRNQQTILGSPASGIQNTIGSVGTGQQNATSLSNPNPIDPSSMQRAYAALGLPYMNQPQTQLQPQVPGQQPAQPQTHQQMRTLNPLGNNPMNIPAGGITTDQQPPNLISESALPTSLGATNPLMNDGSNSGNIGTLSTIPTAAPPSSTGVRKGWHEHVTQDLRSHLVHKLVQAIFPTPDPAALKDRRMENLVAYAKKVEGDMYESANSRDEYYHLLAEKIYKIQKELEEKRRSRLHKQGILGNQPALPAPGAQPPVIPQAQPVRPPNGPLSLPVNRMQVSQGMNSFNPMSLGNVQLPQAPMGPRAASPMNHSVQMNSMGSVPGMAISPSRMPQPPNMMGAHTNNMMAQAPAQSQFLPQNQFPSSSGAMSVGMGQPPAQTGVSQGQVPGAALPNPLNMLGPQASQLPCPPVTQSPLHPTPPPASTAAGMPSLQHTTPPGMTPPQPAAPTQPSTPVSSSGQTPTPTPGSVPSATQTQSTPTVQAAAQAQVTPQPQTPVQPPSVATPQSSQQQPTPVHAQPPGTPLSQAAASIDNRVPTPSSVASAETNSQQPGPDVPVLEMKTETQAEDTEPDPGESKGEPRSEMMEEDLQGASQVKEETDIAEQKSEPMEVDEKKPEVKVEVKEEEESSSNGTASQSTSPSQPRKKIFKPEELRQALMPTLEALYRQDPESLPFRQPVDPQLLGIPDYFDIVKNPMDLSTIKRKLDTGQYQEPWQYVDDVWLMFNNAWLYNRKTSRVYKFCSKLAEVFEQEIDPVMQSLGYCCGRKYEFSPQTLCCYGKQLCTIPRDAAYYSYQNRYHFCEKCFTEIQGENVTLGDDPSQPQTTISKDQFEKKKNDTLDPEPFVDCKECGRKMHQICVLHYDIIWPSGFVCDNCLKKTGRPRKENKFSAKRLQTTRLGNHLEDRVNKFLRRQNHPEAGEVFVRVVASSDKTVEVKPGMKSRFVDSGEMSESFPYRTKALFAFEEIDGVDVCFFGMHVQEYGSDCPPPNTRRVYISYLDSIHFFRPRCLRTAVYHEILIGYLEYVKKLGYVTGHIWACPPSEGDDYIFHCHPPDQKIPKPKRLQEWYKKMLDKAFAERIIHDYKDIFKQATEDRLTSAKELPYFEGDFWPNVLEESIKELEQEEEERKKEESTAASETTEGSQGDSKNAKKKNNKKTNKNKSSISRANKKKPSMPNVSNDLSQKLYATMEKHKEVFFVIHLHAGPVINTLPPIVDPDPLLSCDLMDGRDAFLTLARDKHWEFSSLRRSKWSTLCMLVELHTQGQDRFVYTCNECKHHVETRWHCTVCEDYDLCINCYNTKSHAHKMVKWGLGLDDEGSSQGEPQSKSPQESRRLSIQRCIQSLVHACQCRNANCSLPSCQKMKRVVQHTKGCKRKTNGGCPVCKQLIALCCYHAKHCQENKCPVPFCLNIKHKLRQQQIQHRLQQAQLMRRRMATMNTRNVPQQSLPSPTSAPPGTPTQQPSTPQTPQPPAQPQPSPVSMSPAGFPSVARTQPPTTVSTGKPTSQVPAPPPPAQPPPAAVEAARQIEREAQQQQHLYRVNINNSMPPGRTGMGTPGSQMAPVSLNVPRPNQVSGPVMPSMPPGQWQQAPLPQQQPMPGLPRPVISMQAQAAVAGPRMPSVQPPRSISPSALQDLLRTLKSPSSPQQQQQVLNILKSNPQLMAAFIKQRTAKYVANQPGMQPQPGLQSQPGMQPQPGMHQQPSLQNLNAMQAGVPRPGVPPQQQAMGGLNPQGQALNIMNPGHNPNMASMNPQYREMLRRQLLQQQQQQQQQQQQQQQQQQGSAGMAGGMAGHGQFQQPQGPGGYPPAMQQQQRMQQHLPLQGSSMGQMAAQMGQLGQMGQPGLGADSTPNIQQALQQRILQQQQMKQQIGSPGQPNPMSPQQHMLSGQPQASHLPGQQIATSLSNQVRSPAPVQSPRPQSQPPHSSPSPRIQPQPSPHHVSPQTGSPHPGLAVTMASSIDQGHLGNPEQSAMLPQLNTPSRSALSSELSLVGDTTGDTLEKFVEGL
Compound,IC50 [1],IC50 [2]
"CNC(=O)c1cn(C)c2c(C(C)C)cc(N3CCCc4cc(-c5cnn(C)c5)c(C(F)F)cc43)cc12 [Example 108, 5-(7-(difluoromethyl)-6-(1-methyl-1H-pyrazol-4-yl)-3,4-dihydroquinolin-1(2H)-yl)-7-isopropyl-N,1-dimethyl-1H-indole-3-carboxamide]",0.031 µM,0.235 µM
Cn1cc(-c2cc3c(cc2C(F)F)N(c2cc(N4CCOCC4)c4c(c2)n(C)c(=O)n4C)CCC3)cn1 [Example 45],0.004 µM,0.011 µM
"CN1C(=O)Cc2ccc(N3CCCc4cc(-c5cnn(C)c5)c(C(F)F)cc43)cc21 [Example 90, 6-[7-(difluoromethyl)-6-(1-methylpyrazol-4-yl)-3,4-dihydro-2H-quinolin-1-yl]-1-methyl-indolin-2-one]",0.032 µM,0.096 µM
Cc1cc2c(cc1N1CCCc3cc(-c4cnn(C)c4)c(C(F)F)cc31)n(C)c(=O)n2C [Example 46],0.013 µM,0.413 µM
"CNC(=O)c1c[nH]c2c(C)nc(N3CCCc4cc(-c5cnn(C)c5)c(C(F)F)cc43)cc12 [Example 64, 5-(7-(difluoromethyl)-6-(1-methyl-1H-pyrazol-4-yl)-3,4-dihydroquinolin-1(2H)-yl)-N,7-dimethyl-1H-pyrrolo[2,3-c]pyridine-3-carboxamide]",0.002 µM,0.143 µM
Cn1cc(-c2cc3c(cc2C(F)F)N(c2ccc4c(c2F)n(C)c(=O)n4C)CCC3)cn1 [Example 34],> 4.9 µM,> 10 µM
CNC(=O)c1c[nH]c2ncc(N3CCCc4cc(-c5cnn(C)c5)c(C(F)F)cc43)cc12 [Example 68],0.015 µM,4.38 µM
